Results reported in the supplement of paper PMC10307832.

Legend:
Assay in all cases: relative viability (nuclei count vs DMSO), 5 days (fraction); higher = more cells survive
NCI-H2347 = system: NCI-H2347
Procedure, shortened: (§1)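 Relative viability equals treated-well nuclei counts divided by vehicle-well nuclei counts. Counts came from 4× images of lung cancer cell lines grown in 1536-well plates for 5 days after pin-tool dosing on the day after seeding. Dosing used one drug alone or a fixed anchor-drug dose plus five library-drug doses (not always all listed) in √10 steps, and values are medians of duplicate plates.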

NCI-H3122 = system: NCI-H3122
Procedure, shortened: as §1

NCI-H596 = system: NCI-H596
Procedure, shortened: as §1

RERF-LC-KJ = system: RERF-LC-KJ
Procedure, shortened: as §1

NCI-H1792 = system: NCI-H1792
Procedure, shortened: as §1

NCI-H520 = system: NCI-H520
Procedure, shortened: as §1

NCI-H1563 = system: NCI-H1563
Procedure, shortened: as §1

NCI-H1355 = system: NCI-H1355
Procedure, shortened: as §1

PC-14 = system: PC-14
Procedure, shortened: as §1

LXF-289 = system: LXF-289
Procedure, shortened: as §1

SK-MES-1 = system: SK-MES-1
Procedure, shortened: as §1

NCI-H661 = system: NCI-H661
Procedure, shortened: as §1

NCI-H1651 = system: NCI-H1651
Procedure, shortened: as §1

LCLC-103H = system: LCLC-103H
Procedure, shortened: as §1

NCI-H441 = system: NCI-H441
Procedure, shortened: as §1

NCI-H460 = system: NCI-H460
Procedure, shortened: as §1

NCI-H1915 = system: NCI-H1915
Procedure, shortened: as §1

NCI-H1755 = system: NCI-H1755
Procedure, shortened: as §1

NCI-H727 = system: NCI-H727
Procedure, shortened: as §1

NCI-H322M = system: NCI-H322M
Procedure, shortened: as §1

For `CC(=O)O[C@@]12CO[C@@H]1C[C@H](O)[C@@]1(C)C(=O)[C@H](O)C3=C(C)[C@@H](OC(=O)[C@H](O)[C@@H](NC(=O)OC(C)(C)C)c4ccccc4)C[C@@](O)([C@@H](OC(=O)c4ccccc4)[C@H]21)C3(C)C` [Docetaxel] + Cc1nc(NC(=O)N2CCC[C@H]2C(N)=O)sc1-c1ccnc(C(C)(C)C(F)(F)F)c1 [Alpelisib] (partner 2 µM), the relative viability (NCI-H2347; first compound 0.0002 µM) was 1.01, the relative viability (NCI-H2347; first compound 0.000632 µM) was 1.1 and the relative viability (NCI-H2347; first compound 0.002 µM) was 0.666. For the same compound, the relative viability (NCI-H2347; first compound 0.006325 µM) was 0.525, the relative viability (NCI-H2347; first compound 0.02 µM) was 0.438 and the relative viability (NCI-H3122; first compound 0.0002 µM) was 0.719. The relative viability (NCI-H3122; first compound 0.000632 µM) was 0.753, the relative viability (NCI-H3122; first compound 0.002 µM) was 0.764 and the relative viability (NCI-H3122; first compound 0.006325 µM) was 0.318. For the same compound, the relative viability (NCI-H3122; first compound 0.02 µM) was 0.186, the relative viability (NCI-H596; first compound 0.0002 µM) was 0.616 and the relative viability (NCI-H596; first compound 0.000632 µM) was 0.516. For the same compound, the relative viability (NCI-H596; first compound 0.002 µM) was 0.553, the relative viability (NCI-H596; first compound 0.006325 µM) was 0.457 and the relative viability (NCI-H596; first compound 0.02 µM) was 0.336. For the same compound, the relative viability (RERF-LC-KJ; first compound 0.0002 µM) was 0.801, the relative viability (RERF-LC-KJ; first compound 0.000632 µM) was 0.712 and the relative viability (RERF-LC-KJ; first compound 0.002 µM) was 0.38. For the same compound, the relative viability (RERF-LC-KJ; first compound 0.006325 µM) was 0.235, the relative viability (RERF-LC-KJ; first compound 0.02 µM) was 0.172 and the relative viability (NCI-H1792; first compound 0.0002 µM) was 0.728. For the same compound, the relative viability (NCI-H1792; first compound 0.000632 µM) was 0.655, the relative viability (NCI-H1792; first compound 0.002 µM) was 0.401 and the relative viability (NCI-H1792; first compound 0.02 µM) was 0.0824. For the same compound, the relative viability (NCI-H520; first compound 0.0002 µM) was 0.786, the relative viability (NCI-H520; first compound 0.000632 µM) was 0.95 and the relative viability (NCI-H520; first compound 0.002 µM) was 0.287. It also gave a relative viability (NCI-H520; first compound 0.006325 µM) of 0.152, a relative viability (NCI-H520; first compound 0.02 µM) of 0.13 and a relative viability (NCI-H1563; first compound 0.0002 µM) of 0.879. The relative viability (NCI-H1563; first compound 0.000632 µM) was 0.926, the relative viability (NCI-H1563; first compound 0.002 µM) was 0.809 and the relative viability (NCI-H1563; first compound 0.006325 µM) was 0.807. For the same compound, the relative viability (NCI-H1563; first compound 0.02 µM) was 0.55, the relative viability (NCI-H1355; first compound 0.0002 µM) was 0.726 and the relative viability (NCI-H1355; first compound 0.000632 µM) was 0.768. The relative viability (NCI-H1355; first compound 0.002 µM) was 0.435, the relative viability (NCI-H1355; first compound 0.006325 µM) was 0.313 and the relative viability (NCI-H1355; first compound 0.02 µM) was 0.189. It also gave a relative viability (PC-14; first compound 0.0002 µM) of 0.895, a relative viability (PC-14; first compound 0.000632 µM) of 0.998 and a relative viability (PC-14; first compound 0.002 µM) of 0.354. For the same compound, the relative viability (PC-14; first compound 0.006325 µM) was 0.11, the relative viability (PC-14; first compound 0.02 µM) was 0.0576 and the relative viability (LXF-289; first compound 0.0002 µM) was 1.09. It also gave a relative viability (LXF-289; first compound 0.000632 µM) of 0.577, a relative viability (LXF-289; first compound 0.002 µM) of 0.59 and a relative viability (LXF-289; first compound 0.006325 µM) of 0.119. It also gave a relative viability (LXF-289; first compound 0.02 µM) of 0.0912, a relative viability (SK-MES-1; first compound 0.0002 µM) of 0.932 and a relative viability (SK-MES-1; first compound 0.000632 µM) of 0.892. It also gave a relative viability (SK-MES-1; first compound 0.002 µM) of 0.484, a relative viability (SK-MES-1; first compound 0.006325 µM) of 0.224 and a relative viability (SK-MES-1; first compound 0.02 µM) of 0.104. The relative viability (NCI-H661; first compound 0.0002 µM) was 0.468, the relative viability (NCI-H661; first compound 0.000632 µM) was 0.582 and the relative viability (NCI-H661; first compound 0.002 µM) was 0.411. For the same compound, the relative viability (NCI-H661; first compound 0.006325 µM) was 0.344, the relative viability (NCI-H661; first compound 0.02 µM) was 0.176 and the relative viability (NCI-H1651; first compound 0.0002 µM) was 0.811. It also gave a relative viability (NCI-H1651; first compound 0.000632 µM) of 0.944, a relative viability (NCI-H1651; first compound 0.002 µM) of 0.248 and a relative viability (NCI-H1651; first compound 0.006325 µM) of 0.108. The relative viability (NCI-H1651; first compound 0.02 µM) was 0.111, the relative viability (LCLC-103H; first compound 0.0002 µM) was 0.966 and the relative viability (LCLC-103H; first compound 0.000632 µM) was 0.984. For the same compound, the relative viability (LCLC-103H; first compound 0.002 µM) was 0.963, the relative viability (LCLC-103H; first compound 0.006325 µM) was 0.563 and the relative viability (LCLC-103H; first compound 0.02 µM) was 0.452. For the same compound, the relative viability (NCI-H441; first compound 0.0002 µM) was 0.579, the relative viability (NCI-H441; first compound 0.000632 µM) was 0.677 and the relative viability (NCI-H441; first compound 0.002 µM) was 0.323. The relative viability (NCI-H441; first compound 0.006325 µM) was 0.205, the relative viability (NCI-H441; first compound 0.02 µM) was 0.172 and the relative viability (NCI-H460; first compound 0.0002 µM) was 0.303. It also gave a relative viability (NCI-H460; first compound 0.000632 µM) of 0.185, a relative viability (NCI-H460; first compound 0.002 µM) of 0.016 and a relative viability (NCI-H460; first compound 0.006325 µM) of 0.0118. For the same compound, the relative viability (NCI-H460; first compound 0.02 µM) was 0.0069, the relative viability (NCI-H1915; first compound 0.0002 µM) was 1.02 and the relative viability (NCI-H1915; first compound 0.000632 µM) was 0.971. The relative viability (NCI-H1915; first compound 0.002 µM) was 0.52, the relative viability (NCI-H1915; first compound 0.006325 µM) was 0.183 and the relative viability (NCI-H1915; first compound 0.02 µM) was 0.135. For the same compound, the relative viability (NCI-H1755; first compound 0.0002 µM) was 0.871, the relative viability (NCI-H1755; first compound 0.000632 µM) was 0.792 and the relative viability (NCI-H1755; first compound 0.002 µM) was 0.434. It also gave a relative viability (NCI-H1755; first compound 0.006325 µM) of 0.326, a relative viability (NCI-H1755; first compound 0.02 µM) of 0.262 and a relative viability (NCI-H727; first compound 0.0002 µM) of 0.583. For the same compound, the relative viability (NCI-H727; first compound 0.000632 µM) was 0.639, the relative viability (NCI-H727; first compound 0.002 µM) was 0.369 and the relative viability (NCI-H727; first compound 0.006325 µM) was 0.298. It also gave a relative viability (NCI-H727; first compound 0.02 µM) of 0.23, a relative viability (NCI-H322M; first compound 0.0002 µM) of 0.908 and a relative viability (NCI-H322M; first compound 0.000632 µM) of 0.869. It also gave a relative viability (NCI-H322M; first compound 0.002 µM) of 0.618, a relative viability (NCI-H322M; first compound 0.006325 µM) of 0.533 and a relative viability (NCI-H322M; first compound 0.02 µM) of 0.181.
